The results in this text go back to article PMC8879200, “Design, Synthesis, and Biological Evaluation of 4,4’-Difluorobenzhydrol Carbamates as Selective M1 Antagonists” (Pharmaceuticals, 2022).

Like-named read-outs stand apart in the source and are kept apart here.

One data set addresses T1, hM3 (Homo sapiens, UniProt P20309).
T1 construct: host or cells: CHO-K1, stably transfected
Description: Competitive [3H]NMS radioligand binding, CHO-hM3 cell membranes. The following applies: for Ki: read-out: Affinity: Ki ± SD, hM3. The procedure:
(§1) We first assessed the carbamates’ affinities for human muscarinic acetylcholine receptors subtypes hM1–5 by means of a competitive radioligand binding assay displacing [N-methyl-^3H]scopolamine methyl chloride ([^3H]NMS) in cell membranes expressing the individual receptors.
(§2) Cell membranes bearing hM1-hM5 receptors were prepared as described previously. Briefly, stably transfected CHO-K1 cells were grown to at least 80% confluency in T175 flasks, washed with ice-cold DPBS, and scraped into a mixture of ice-cold of 2 mL 10 mM Tris-HCl, 1 mM EDTA-buffer, pH 7.4 and 200 µL protease inhibitor. A cell homogenate was prepared by passing the cell suspension through a G29 needle. The cell homogenates corresponding to two T175 flasks were combined and subsequently centrifuged (10 min, 1000 × g, 4 °C). Ultracentrifugation of the supernatant (1 h, 100,000 × g, 4 °C) yielded a membrane pellet, which was suspended in 250 µL 50 mM Tris-HCl buffer, pH 7.4 and stored at −80 °C.
(§3) Maximum binding was measured by using 5 µL DMSO, and nonspecific binding was measured by using 5 µL of 1 µM scopolamine in DMSO. […] The membrane-bound radioactivity was recovered by filtration through Whatman™ GF/B glass fibre filters pre-soaked in aqueous 0.1% PEI using an M-36 tygon tubed cell harvester (Brandel®, Gaithersburg, MD, USA). Membranes were washed 3 times with ice-cold washing buffer (50 mM Tris, pH 7.4) before being dried, transferred to 2 mL scintillation cocktail (UltimaGold™, high flashpoint LSC cocktail, PerkinElmer, Waltham, MA, USA) and counted in a β -counter (Hidex TDCR Liquid Scintillation Counter in CPM mode). IC50 values were calculated by a variable slope logistic regression using at least five distinct concentrations of test compounds, pipetted in triplicates.

Data set [1] is described as follows: High throughput HPLC-logD (lipophilicity). Conditions: pH 7.4.
Description: (§4) Briefly, a mixture of toluene (≥98%, Sigma-Aldrich, St. Louis, MO, USA) and triphenylene (≥99.9%, Carl Roth, Karlsruhe, Germany) was used as internal standard. Each sample was dissolved in the internal standard mixture. Using gradient elution, the injection volume was set to 7 µL, the flow rate was 1.5 mL/min, and the mobile phase consisted of a mixture of methanol and 0.01 M sodium phosphate buffer pH 7.4. The HPLC-logD values were derived from the measured retention times following the previously published equation [27, 30].
Data set [2] in a line: Stability in fully supplemented RPMI1640 cell culture medium. The data set is classed as in vitro ADME. The following applies: fully supplemented RPMI1640, ambient temperature, after 24 h. The protocol:
Since the decomposition in cell culture medium of compounds designated for biological testing could impair potential assay readouts, the stabilities of one tertiary carbamate (3) and one secondary carbamate (7) were investigated as representatives for the compound set 1–12. Gratifyingly, the rate of decomposition in fully supplemented RPMI1640 cell culture medium at ambient temperature has been fairly slow, with > 95% of both compounds remaining intact after 24 h (Supplementary Materials, Figure S3). Such stability is adequate with the requirements for carbon-11 labelled PET tracers of around 2–3 half-lives.
The stabilities of 3 and 7 were measured using the HPLC gradient method as described for the purity determination. 4 µL of a test compound’s stock solution in DMSO was diluted with fully supplemented RPMI1640 cell culture medium (10% FBS, 1% L-glutamine, without antibiotics). The stability was measured at ambient temperature and the column oven was set to 20 °C. The samples were measured at 0, 30, 60, 120 min and 24 h.

Another data set deals with T2, hM2 (Homo sapiens, UniProt P08172).
T2 construct: host or cells: CHO-K1, stably transfected
T2 sequence (P08172 1-466): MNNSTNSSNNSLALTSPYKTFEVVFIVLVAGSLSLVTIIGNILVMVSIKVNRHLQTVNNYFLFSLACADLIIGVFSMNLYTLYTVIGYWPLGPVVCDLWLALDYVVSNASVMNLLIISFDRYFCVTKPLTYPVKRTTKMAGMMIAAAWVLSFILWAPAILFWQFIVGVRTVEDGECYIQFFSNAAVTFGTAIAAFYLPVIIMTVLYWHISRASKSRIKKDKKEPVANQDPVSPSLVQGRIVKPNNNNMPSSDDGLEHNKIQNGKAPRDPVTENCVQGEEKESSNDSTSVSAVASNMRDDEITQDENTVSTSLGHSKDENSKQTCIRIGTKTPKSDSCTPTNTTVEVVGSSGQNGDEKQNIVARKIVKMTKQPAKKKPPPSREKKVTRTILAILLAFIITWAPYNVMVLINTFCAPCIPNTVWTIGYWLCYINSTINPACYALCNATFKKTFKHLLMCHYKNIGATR
As to the kind of experiment: Competitive [3H]NMS radioligand binding, CHO-hM2 cell membranes. The following applies: for Ki: read-out: Affinity: Ki ± SD, hM2. The protocol:
as §1, §2, §3

The next data set addresses T3, hM5 (Homo sapiens, UniProt P08912).
T3 construct: host or cells: CHO-K1, stably transfected
T3 sequence (P08912 1-532): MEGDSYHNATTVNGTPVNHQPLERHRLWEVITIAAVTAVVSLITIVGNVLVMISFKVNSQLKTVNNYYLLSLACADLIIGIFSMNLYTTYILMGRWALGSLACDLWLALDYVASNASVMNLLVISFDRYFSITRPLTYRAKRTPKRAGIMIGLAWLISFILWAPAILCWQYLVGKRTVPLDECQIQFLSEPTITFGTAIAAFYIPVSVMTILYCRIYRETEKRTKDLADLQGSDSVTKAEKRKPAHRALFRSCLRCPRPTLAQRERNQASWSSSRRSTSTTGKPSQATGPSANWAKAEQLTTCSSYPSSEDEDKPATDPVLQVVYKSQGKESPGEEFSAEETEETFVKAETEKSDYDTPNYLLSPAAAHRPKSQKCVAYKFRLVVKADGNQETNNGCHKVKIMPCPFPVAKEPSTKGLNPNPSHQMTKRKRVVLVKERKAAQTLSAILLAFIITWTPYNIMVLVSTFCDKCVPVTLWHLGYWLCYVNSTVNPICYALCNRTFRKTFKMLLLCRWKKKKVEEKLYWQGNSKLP
As to the kind of experiment: Competitive [3H]NMS radioligand binding, CHO-hM5 cell membranes. The following applies: for Ki: inhibition of [3H]NMS binding, CHO-hM5 membranes, read-out: Affinity: Ki ± SD, hM5. The protocol:
as §1, §2, §3

The next data set deals with T4, hM1 (Homo sapiens, UniProt P11229).
T4 construct: host or cells: CHO-K1, stably transfected
T4 sequence (P11229 1-460): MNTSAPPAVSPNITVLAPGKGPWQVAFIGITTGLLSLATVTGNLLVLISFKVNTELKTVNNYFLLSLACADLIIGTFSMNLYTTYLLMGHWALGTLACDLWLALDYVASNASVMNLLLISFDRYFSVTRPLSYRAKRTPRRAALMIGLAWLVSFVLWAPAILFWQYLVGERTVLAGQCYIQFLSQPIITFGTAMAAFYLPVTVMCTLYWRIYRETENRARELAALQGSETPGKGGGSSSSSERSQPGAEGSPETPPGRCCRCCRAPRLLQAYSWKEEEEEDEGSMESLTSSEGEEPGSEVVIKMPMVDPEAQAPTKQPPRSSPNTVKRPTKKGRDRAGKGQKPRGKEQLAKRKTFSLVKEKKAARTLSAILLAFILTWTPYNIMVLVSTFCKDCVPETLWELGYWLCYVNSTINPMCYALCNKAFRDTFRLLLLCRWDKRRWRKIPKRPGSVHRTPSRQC
As to the kind of experiment: Competitive [3H]NMS radioligand binding, CHO-hM1 cell membranes. The following applies: inhibition of [3H]NMS binding, CHO-hM1 membranes; read-out: Affinity: Ki ± SD, hM1. The protocol:
as §1, §2, §3

The target of a further data set is T5, hM4 (Homo sapiens, UniProt P08173).
T5 construct: host or cells: CHO-K1, stably transfected
T5 sequence (P08173 1-479): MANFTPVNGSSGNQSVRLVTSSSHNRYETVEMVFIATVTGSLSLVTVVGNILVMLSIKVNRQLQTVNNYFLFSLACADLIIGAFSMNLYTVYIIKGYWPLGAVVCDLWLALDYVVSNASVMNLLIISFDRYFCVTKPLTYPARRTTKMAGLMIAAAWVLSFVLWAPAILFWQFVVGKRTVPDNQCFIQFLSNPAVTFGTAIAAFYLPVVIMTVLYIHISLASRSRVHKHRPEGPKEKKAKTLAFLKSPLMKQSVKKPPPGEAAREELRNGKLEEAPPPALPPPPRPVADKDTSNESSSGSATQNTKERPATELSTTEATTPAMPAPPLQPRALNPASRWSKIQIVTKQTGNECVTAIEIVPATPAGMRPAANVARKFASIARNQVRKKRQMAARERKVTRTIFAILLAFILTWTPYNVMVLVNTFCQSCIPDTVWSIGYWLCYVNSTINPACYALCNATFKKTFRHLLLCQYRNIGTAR
Description: Competitive [3H]NMS radioligand binding, CHO-hM4 cell membranes. The following applies: for Ki: inhibition of [3H]NMS binding, CHO-hM4 membranes, read-out: Affinity: Ki ± SD, hM4. The procedure:
as §1, §2, §3

Another data set can be described thus: physchem. The following applies: pH 7.4.

T1 sequence (P20309 whole entry): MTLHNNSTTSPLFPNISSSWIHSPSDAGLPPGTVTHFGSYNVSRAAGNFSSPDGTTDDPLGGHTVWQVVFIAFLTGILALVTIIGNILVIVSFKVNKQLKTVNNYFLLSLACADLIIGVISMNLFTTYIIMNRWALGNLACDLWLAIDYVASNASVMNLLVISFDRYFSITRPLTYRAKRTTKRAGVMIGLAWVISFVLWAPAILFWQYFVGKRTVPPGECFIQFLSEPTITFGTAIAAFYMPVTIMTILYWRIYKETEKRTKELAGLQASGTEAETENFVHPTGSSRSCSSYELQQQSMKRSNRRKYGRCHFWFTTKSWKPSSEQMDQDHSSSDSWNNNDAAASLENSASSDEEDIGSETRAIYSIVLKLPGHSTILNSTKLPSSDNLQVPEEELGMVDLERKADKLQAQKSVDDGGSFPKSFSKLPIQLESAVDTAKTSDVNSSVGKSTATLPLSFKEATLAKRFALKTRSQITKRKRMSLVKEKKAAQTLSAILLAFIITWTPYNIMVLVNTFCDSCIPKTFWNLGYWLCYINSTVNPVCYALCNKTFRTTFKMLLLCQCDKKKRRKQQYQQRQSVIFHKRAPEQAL
Description for physchem: as §4

For `CN1CCCC(NC(=O)OC(c2ccc(F)cc2)c2ccc(F)cc2)C1` (stereo not drawn) [Compound 7, Bis(4-fluorophenyl)methyl (1-methylpiperidin-3-yl)carbamate], the inhibitory constant (Ki) at hM3 amounted to 16.1 ± 4.5 nM; at hM2, 32.8 ± 11.4 nM; on hM5 it was 3.7 ± 1.3 nM; on hM1, 1.22 ± 0.06 nM; on hM4, 6.2 ± 2.1 nM. The compound further registered a chromatographic logD in data set [1] of 2.2 ± 0.2. For the same compound, in data set [2], the “Compound remaining intact in cell culture medium” value is recorded as above 95%.

For the compound `CN1C2CCCC1CC(NC(=O)OC(c1ccc(F)cc1)c1ccc(F)cc1)C2` [Compound 8, Bis(4-fluorophenyl)methyl ((1R,3s,5S)-9-methyl-9-azabicyclo[3.3.1]nonan-3-yl)carbamate], the Ki was above 1000 nM at hM3 (inhibition of [3H]NMS binding, CHO-hM3 membranes, >1000 values from two independent experiments); 624 ± 104 nM on hM2 (inhibition of [3H]NMS binding, CHO-hM2 membranes, >1000 values from two independent experiments); 521 ± 173 nM at hM5; 475 ± 88.5 nM on hM1; 563 ± 73.4 nM on hM4. In “physchem”, this compound displayed a chromatographic logD of 3.21 ± 0.03.

`CN1CCC(NC(=O)OC(c2ccc(F)cc2)c2ccc(F)cc2)C1` (stereo not drawn) [Compound 9, Bis(4-fluorophenyl)methyl (1-methylpyrrolidin-3-yl)carbamate] registered a melting point of 84 to 86 °C. The “x-Fold selectivity for hM1 vs. hM3” value at hM3 (ratio of Ki values hM3/hM1) turned out to be 2.7 fold. For the same compound, on hM3, the Ki came to 181 ± 68.1 nM. The chromatographic logD in data set [1] is 2.8 ± 0.1. Moreover, the “x-Fold selectivity for hM1 vs. hM2” value at hM2 (ratio of Ki values hM2/hM1) is reported as 10.6 fold. Also, the Ki at hM2 was 722 ± 101 nM. In addition, at hM5, the Ki was 64.5 ± 22.8 nM. Moreover, the “x-Fold selectivity for hM1 vs. hM5” value on hM5 (ratio of Ki values hM5/hM1) amounted to 1.0 fold. Moreover, the Ki on hM1 is 67.8 ± 5.4 nM. For the same compound, the inhibitory constant (Ki) at hM4 turned out to be 144 ± 37.3 nM. Also, at hM4 (ratio of Ki values hM4/hM1), the “x-Fold selectivity for hM1 vs. hM4” value came out at 2.1 fold.

As a reminder, the Ki is a measure of affinity in units of concentration, obtained from inhibition or displacement. The term chromatographic logD denotes a lipophilicity value derived from retention on a column. Higher therefore signals a more lipophilic compound. By melting point is commonly meant the temperature of the solid-liquid transition.
